# Test results from patent US9458508B2, “Methods and compositions for the diagnosis and treatment of cancer resistant to anaplastic lymphoma kinase (ALK) kinase inhibitors” (St. Jude Children's Research Hospital, priority 2010, dated 2016).
# Test system: parental BaF3 cells
# Experiment: cells
# Conditions: Mus musculus, BaF3, 72 h
# Experimental: Parental BaF3 cells (“BaF3”) were also tested as a normal, non-ALK-dependent cell control.
structure (smiles),measurement,value
C[C@@H](Oc1cc(-c2cnn(C3CCNCC3)c2)cnc1N)c1c(Cl)ccc(F)c1Cl [PF-02341066],IC50,1.46 µM
